The source of these data is patent publication US7589125B2, “2,4-dihydroxybenzoic acid derivatives” (Palau Pharma, S.A., priority 2002, dated 2009).

The structures appear in SMILES notation.

One series deals with farnesyltransferase (Homo sapiens, UniProt P49356). To be noted: Hardcastle et al, Tetrahedron Letters 2001, 42(7), 1363-1365; cited from earlier work.
Another series deals with Male Swiss mice. The experiment in a line: Test 1 - Oxazolone-induced delayed hypersensitivity in mice (ear edema). It is filed as in vivo. Particulars: topical on right ear, solution in acetone; FIG. 1. How it is done: Test 1—Oxazolone-induced Delayed Hipersensitivity in Mice
Method: Male Swiss mice (25-30 g body weight) were sensitized by the application of a 2% solution of oxazolone (Sigma) in acetone (50 μL) into the shaved abdomen. Seven days later, 25 μL of a 1.5% solution of oxazolone was applied on both surfaces of the right ear of the animals. The left ear served as control and was only treated with the vehicle (acetone). 20 μL of the test compound (dissolved in acetone) or vehicle alone (control) was applied on both sides of the right ear, 24 h before challenge and 1 and 5 h after challenge. To evaluate the edema, mice were killed (by CO2 inhalation) and an 8 mm disc was excised from the right and left ears. The edema was measured by the difference in weight between the two ears and inhibition was expressed as percentage in relation to the control group.

Series [1] concerns immune-deficient BNX mice transplanted with human psoriatic skin. The experiment in a line: Test 2 - Psoriasis model in immune-deficient BNX mice transplanted with human psoriatic skin. It counts as in vivo. To be noted: topical ointment at the concentration of 0.1%; p<0.01. The source says: Test 2—Psoriasis Model in Immune-deficient BNX Mice Transplanted with Human Psoriatic Skin
Method: The goal of this study is to assess the effect of the test compounds on the development of a psoriatic lesion, induced by super-antigen-activated human peripheral blood T-cells, in non-lesional skin from a psoriasis patient transplanted onto immune-deficient BNX mice. Mice (male/female, circa 20 g, 5 mice per group) were transplanted with non-lesional skin biopsies from psoriasis patients. Peripheral blood mononuclear cells from the same patients were isolated and stored in freezer until further use. Transplants were allowed to “lake” for 4 weeks. After this period, transplants were treated topically with test compound or control (vehicle) preparations for 1 week. Then, peripheral blood mononuclear cells from psoriatic patients, previously activated in vitro for 2 days with super-antigen, were injected into the transplants intra-dermally. Transplants were treated with test compound or control preparations for two additional weeks. Transplants were then harvested and epidermal thickness was measured by using computer-aided morphometric analysis.

The test system of a further series is Male Lewis rats. The experiment in a line: Test 3 - Inhibition of adjuvant-induced arthritis in the rat. It is filed as in vivo. To be noted: 10 mg/kg/day p.o. for 28 days. As for the experimental part: Test 3—Inhibition of Adjuvant-induced Arthritis in the Rat
Method: Male Lewis rats with body weight between 140 and 170 g and 7 week-old were used. Before the start of the study animals were acclimated for a period of at least 5 days. Animals were fasted for 18 hours before the study, with water ad libitum. Throughout the study, animals were allowed free access to drinking water, except during observation periods.
Groups of five animals were randomized (Sham, Control and Test compound). The duration of the study was 28 days. Arthritis was induced on day 1 of the study by a single subplantar injection of 0.1 mL of an emulsion prepared with 10 mg Mycobacterium butyricum and 10 mL Freund's incomplete adjuvant (Difco) to the right hindpaw of the animals from the Control (C) and Test compound (T) groups. Sham animals (S) received 0.1 mL Freund's incomplete adjuvant. Test compound was administered daily from day 1 of the study until day 28 at a dose of 10 mg/kg p.o. as a suspension in 1% Tween 80® while the Control group only received the vehicle. On day 28 of the development of arthritis, the volume of the left paw (secondary edema) was determined using a UGO BASILE 7150 plethysmometer. The inhibition of the increase in volume was calculated as follows: % Inh.=100−((T−S)/(C−S))*100 Where: T=Test compound group; C=Control group; and S=Sham group

For series [2], the system named is splenic lymphocytes from C57BL/6 mice stimulated with splenic lymphocytes from CBA mice. The experiment in a line: Test 4 - Immunosuppression model: murine mixed lymphocyte reaction. It is filed as cell-based. How it is done:
Test 4—Immunosupression Model: Murine Mixed Lymphocyte Reaction
Method: Immunosuppression was assessed by testing the effects of the compounds on the proliferation of splenic lymphocytes from C57BL/6 mice strain stimulated with splenic lymphocytes from CBA mice strain. Splenic lymphocyte populations were isolated from two mouse strains: CBA (acting as stimulating cells) and C57BL/6 (acting as proliferating cells). Homogenized mouse spleen was filtered and subsequently centrifuged at 250×g for 5 minutes at 4° C. The pellets were resuspended in culture medium (RPMI 1640 supplemented with 5% fetal calf serum and 2% antibiotics) and after repeating this process twice they were adjusted to a final density of 5×10^6 cells/mL. The isolated lymphocytes from CBA strain were treated with mitomycin C to block their proliferation.
In a 96-well plate, solutions of the test compounds or culture medium alone (for the control) were distributed. Next, 5×10^5 C57BL/6 cells and 2.5×10^5 CBA cells were added and incubated for 48 h (37° C., 5% CO2). After this preincubation 1 μCi of [^3H]-thymidine and 0.2 mM unlabeled thymidine were added to each well and the mixture was incubated 24 h. […]
Lymphocyte proliferation was measured as [^3H]-thymidine incorporation into the DNA of responding cells (C57BL/6) using a liquid scintillation counter (LS series, Beckman).

Series [3] concerns hamster lung fibroblast cell line (V79 cells). The experiment in a line: Test 5 - Induction of apoptosis in tumor cells (active caspase-3, flow cytometry). It counts as cell-based. As for the experimental part:
Test 5: Induction of Apoptosis in Tumor Cells
Method: The ability of the compounds of the invention to induce apoptosis was determined in a hamster lung fibroblast cell line (V79 cells). To determine the induction of apoptosis a commercially available kit was used (CaspaTag™ Caspase-3 (DEVD) Activity Kit, Intergen); this kit detects the presence in the cells of the active form of the enzyme caspase-3, which is an apoptosis marker. V79 cells were incubated for 72 h in culture medium (DMEM supplemented with 2 mM Glutamine and 10% fetal calf serum) in the presence of test compound (30 and 100 μM; solution in phosphate-buffered saline) or vehicle. Next, cells were washed with phosphate-buffered saline, treated with Trypsin-EDTA solution until the cell layer was dispersed and were resuspended in fresh growth medium at a concentration of 10^6 cells/mL. A 300 μL aliquote of each of the samples was transferred to a tube and was incubated with the irreversible, carboxyfluorescein-labeled peptidic caspase-3 inhibitor FAM-DEVD-FMK for 1 hour at 37° C. in 5% CO2 and protecting the tubes from light following the kit's instructions. […] The inhibitor in excess was washed and the cells were then analyzed by flow cytometry at 488 nm.
On the technique in general: A flow cytometer gives signals particle by particle.

Series [4] concerns human peripheral blood mononuclear cells (PBMC). The experiment in a line: Cell viability in human non-proliferating cells (PBMC). It counts as cell-based. To be noted: concentrations up to 500 μM, 72 h of incubation.
In series [5] the test system is human umbilical vein endothelial cells (HUVEC). The experiment in a line: Cell viability in human non-proliferating cells (HUVEC). Particulars: concentrations up to 500 μM, 72 h of incubation. It is filed as cell-based.

Chain of farnesyltransferase (P49356 whole entry): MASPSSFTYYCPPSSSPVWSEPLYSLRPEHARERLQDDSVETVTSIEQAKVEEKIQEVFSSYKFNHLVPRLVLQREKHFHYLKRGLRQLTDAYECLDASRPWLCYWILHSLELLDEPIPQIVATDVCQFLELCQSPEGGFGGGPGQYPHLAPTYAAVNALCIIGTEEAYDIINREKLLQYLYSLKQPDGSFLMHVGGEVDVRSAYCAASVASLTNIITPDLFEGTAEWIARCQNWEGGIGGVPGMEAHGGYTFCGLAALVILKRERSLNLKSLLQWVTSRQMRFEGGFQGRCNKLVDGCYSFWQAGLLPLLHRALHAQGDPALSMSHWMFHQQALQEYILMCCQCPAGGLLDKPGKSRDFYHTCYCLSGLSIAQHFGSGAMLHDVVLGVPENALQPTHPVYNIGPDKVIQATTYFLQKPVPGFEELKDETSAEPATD

Regarding `O=C(O)c1c(O)c(F)c(OCCCF)c(F)c1F` [2,3,5-trifluoro-4-(3-fluoropropoxy)-6-hydroxybenzoic acid], at farnesyltransferase, the farnesyltransferase inhibition result was “inactive”.
For orientation: melting point means the temperature of the solid-liquid transition. The compound `COC(=O)c1ccc(OCCF)cc1O` [Example 4, Methyl 2-hydroxy-4-(2-fluoroethoxy)benzoate] yielded a melting point of 64 °C.
`O=C(O)c1ccc(OCC(F)(F)C(F)(F)F)cc1O` [Example 6, 2-Hydroxy-4-(2,2,3,3,3-pentafluoropropoxy)benzoic acid]: in the series with Male Swiss mice, the “inhibition of the edema (difference in weight between the two ears)” value was “concentration-dependent inhibition of the edema”. For the same compound, the “inhibition of the increase of the epidermal thickness induced by intradermal injection of activated mononuclear cells” value in series [1] was “significant inhibition”. Further, the “inhibition of the increase in volume of the left paw (secondary edema)” value in the series with Male Lewis rats was “significant inhibition”. For the same compound, in series [2] (300 μM), the “inhibition of mice splenic lymphocyte proliferation ([3H]-thymidine incorporation)” value is listed as “completely inhibited”. In series [2] (Mus musculus, Splenic lymphocyte, 100 μM, read-out: inhibition of the proliferation of mice splenic lymphocytes), the inhibition at 100 µM worked out at 60%. Further, the “number of cells containing the active form of caspase-3 (apoptotic cells)” value in series [3] (30 and 100 μM, 72 h incubation, FIG. 2) is on record as “concentration-dependent increase”. In addition, the “morphological observation of the cells (activation of apoptosis)” value in series [3] (V79 cells) was “presence of cell membrane blebbing and the formation of apoptotic bodies”. Moreover, the cell viability result in series [4] and in [5] was “not to affect cell viability” throughout.
